≈ marks a conversion by molar mass, not a printed value.
test system: Bipolaris maydis; assay: Antifungal activity against Bipolaris maydis relative to control; type: functional; parameters: concentration or dose not given beside the values; settings: not given

| SMILES | Activity [%] |
| --- | --- |
| Cc1nccc2c1[nH]c1cc(OC(=O)C(C)(C)C)ccc12 | 78.9 |
| Cc1nccc2c1[nH]c1ccc([N+](=O)[O-])cc12 | 31.6 |
| Cc1nccc2c1[nH]c1cc(OC(=O)NC(C)C)ccc12 | 22.7 |
| N#Cc1c(Cl)c(Cl)c(Cl)c(C#N)c1Cl [CHLOROTHALONIL] | 91.3 |
| Cc1nccc2c1[nH]c1ccccc12 [HARMAN] | 36.4 |
| Cc1nccc2c1[nH]c1cc(O)ccc12 | 31.8 |
| Cc1nc(C(=O)O)cc2c1[nH]c1ccccc12 [HARMAN-3-CARBOXYLIC ACID] | 21.1 |
| Cc1nccc2c1[nH]c1ccc(Br)cc12 | 86.4 |

test system: Alternaria alternata; assay: Antifungal activity against Alternaria alternata; type: functional; settings: not given

| SMILES | MIC [µg/mL] |
| --- | --- |
| COc1ccc(C2c3[nH]c4ccccc4c3C[C@H]3C(=O)N4CCC[C@H]4C(=O)N23)cc1 (stereo partly drawn) | 12.5 (≈ 31.1 µM) |
| CC(C)C1c2[nH]c3ccccc3c2C[C@H]2C(=O)N3CCC[C@H]3C(=O)N12 (stereo partly drawn) | 12.5 (≈ 37 µM) |
| O=C1[C@@H]2Cc3c([nH]c4ccccc34)C(c3ccccc3)N2C(=O)[C@@H]2CCCN12 (stereo partly drawn) | 12.5 (≈ 33.7 µM) |
| COc1cc(C2c3[nH]c4ccccc4c3C[C@H]3C(=O)N4CCC[C@H]4C(=O)N23)ccc1O (stereo partly drawn) | 12.5 (≈ 29.9 µM) |
| O=C1[C@@H]2Cc3c([nH]c4ccccc34)C(c3ccc(O)cc3)N2C(=O)[C@@H]2CCCN12 (stereo partly drawn) | 12.5 (≈ 32.3 µM) |
| O=C1[C@@H]2Cc3c([nH]c4ccccc34)C(c3ccc([N+](=O)[O-])cc3)N2C(=O)[C@@H]2CCCN12 (stereo partly drawn) | 12.5 (≈ 30 µM) |

test system: Colletotrichum gloeosporioides; assay: Antifungal activity against Colletotrichum gloeosporioides; type: functional; settings: not given

| SMILES | MIC [µg/mL] |
| --- | --- |
| COc1ccc(C2c3[nH]c4ccccc4c3C[C@H]3C(=O)N4CCC[C@H]4C(=O)N23)cc1 (stereo partly drawn) | 6.25 (≈ 15.6 µM) |
| CC(C)C1c2[nH]c3ccccc3c2C[C@H]2C(=O)N3CCC[C@H]3C(=O)N12 (stereo partly drawn) | 12.5 (≈ 37 µM) |
| O=C1[C@@H]2Cc3c([nH]c4ccccc34)C(c3ccccc3)N2C(=O)[C@@H]2CCCN12 (stereo partly drawn) | 12.5 (≈ 33.7 µM) |
| COc1cc(C2c3[nH]c4ccccc4c3C[C@H]3C(=O)N4CCC[C@H]4C(=O)N23)ccc1O (stereo partly drawn) | 12.5 (≈ 29.9 µM) |
| O=C1[C@@H]2Cc3c([nH]c4ccccc34)C(c3ccc(O)cc3)N2C(=O)[C@@H]2CCCN12 (stereo partly drawn) | 12.5 (≈ 32.3 µM) |
| O=C1[C@@H]2Cc3c([nH]c4ccccc34)C(c3ccc([N+](=O)[O-])cc3)N2C(=O)[C@@H]2CCCN12 (stereo partly drawn) | 6.25 (≈ 15 µM) |

test system: Alternaria brassicae; assay: Antifungal activity against Alternaria brassicae; type: functional; settings: not given

| SMILES | MIC [µg/mL] |
| --- | --- |
| COc1ccc(C2c3[nH]c4ccccc4c3C[C@H]3C(=O)N4CCC[C@H]4C(=O)N23)cc1 (stereo partly drawn) | 12.5 (≈ 31.1 µM) |
| CC(C)C1c2[nH]c3ccccc3c2C[C@H]2C(=O)N3CCC[C@H]3C(=O)N12 (stereo partly drawn) | 12.5 (≈ 37 µM) |
| O=C1[C@@H]2Cc3c([nH]c4ccccc34)C(c3ccccc3)N2C(=O)[C@@H]2CCCN12 (stereo partly drawn) | 12.5 (≈ 33.7 µM) |
| COc1cc(C2c3[nH]c4ccccc4c3C[C@H]3C(=O)N4CCC[C@H]4C(=O)N23)ccc1O (stereo partly drawn) | 6.25 (≈ 15 µM) |
| O=C1[C@@H]2Cc3c([nH]c4ccccc34)C(c3ccc(O)cc3)N2C(=O)[C@@H]2CCCN12 (stereo partly drawn) | 6.25 (≈ 16.1 µM) |
| O=C1[C@@H]2Cc3c([nH]c4ccccc34)C(c3ccc([N+](=O)[O-])cc3)N2C(=O)[C@@H]2CCCN12 (stereo partly drawn) | 12.5 (≈ 30 µM) |

test system: Candida albicans; assay: Antifungal activity against Candida albicans; type: functional, organism-based; settings: not given

| SMILES | EC50 [uM/ml] |
| --- | --- |
| C[n+]1ccc2c3ccccc3n(-n3c4ccccc4c4cc[n+](C)cc43)c2c1.[I-].[I-] | 0.5 |
| c1ccc2c(c1)c1ccncc1n2-n1c2ccccc2c2ccncc21 | > 1 |

test system: Sclerotinia; assay: Antifungal activity against sunflower Sclerotinia rot at 50 ug/ml relative to control; type: functional; settings: dose 50 µg/ml

| SMILES | Activity [%] |
| --- | --- |
| Cc1nccc2c3ccccc3n(Cc3cn(-c4ccc(C(F)(F)F)cc4)nn3)c12 | 86.93 |
| Cc1nccc2c3ccccc3n(Cc3cn(-c4cc(F)c(F)c(F)c4)nn3)c12 | 85.98 |
| Cc1nccc2c3ccccc3n(Cc3cn(-c4ccccc4)nn3)c12 | 85.04 |
| Cc1nccc2c3ccccc3n(Cc3cn(-c4ccncc4)nn3)c12 | 84.47 |

test system: Rhizoctonia solani; assay: Antifungal activity against Rhizoctonia solani; type: functional, organism-based; settings: not given

| SMILES | EC50 [µg/mL] |
| --- | --- |
| COc1ccc(-c2nc(NC(=O)NC(=O)c3c(F)cccc3F)cc3c2[nH]c2ccccc23)cc1 | 277 (≈ 586 µM) |
| COc1cc(-c2nc(NC(=O)NC(=O)c3c(F)cccc3F)cc3c2[nH]c2ccccc23)cc(OC)c1OC | 131 (≈ 246 µM) |
| COc1cc(-c2nc(NC(=O)Nc3ccc(C(F)(F)F)cc3)cc3c2[nH]c2ccccc23)cc(OC)c1OC | 281 (≈ 524 µM) |
| OCC1=C[C@H](N[C@H]2C[C@H](CO)[C@@H](O[C@@H]3O[C@H](CO)[C@@H](O)[C@H](O)[C@H]3O)[C@H](O)[C@H]2O)[C@H](O)[C@@H](O)[C@@H]1O [VALIDAMYCIN] | 198 (≈ 397 µM) |
| c1ccc(-c2nc(-c3nnc(C4CC4)o3)cc3c2[nH]c2ccccc23)cc1 | 4.2 (≈ 11.9 µM) |
| COc1cc(C(=O)NC(=S)Nc2cc3c([nH]c4ccccc43)c(-c3cc(OC)c(OC)c(OC)c3)n2)cc(OC)c1OC | 293 (≈ 486 µM) |

test system: Fusarium solani; assay: Antifungal activity against Fusarium solani; type: functional, organism-based; settings: not given

| SMILES | EC50 [µM] |
| --- | --- |
| Cc1ccc2c(c1)c1c(n2C)C=[N+](c2ccccc2C)CC1 | 3.47 |
| Cn1c2c(c3ccccc31)CC[N+](c1ccc(F)cc1)=C2 | 2.18 |
| Cc1ccccc1[N+]1=Cc2c(c3ccccc3n2C)CC1 | 2.35 |
| Cc1ccc2c(c1)c1c(n2C)C=[N+](c2ccc(F)cc2)CC1 | 5.44 |
| Cc1cccc([N+]2=Cc3c(c4cc(C)ccc4n3C)CC2)c1 | 2.67 |
| Cc1cccc([N+]2=Cc3c(c4ccccc4n3C)CC2)c1 | 3.03 |
| Cc1ccc2c(c1)c1c(n2C)C=[N+](c2ccc(Cl)cc2)CC1 | 2.68 |
| Cc1ccc([N+]2=Cc3c(c4ccccc4n3C)CC2)cc1 | 2.47 |

test system: Trichophyton interdigitale; assay: Antifungal activity against Trichophyton interdigitale; type: functional; settings: not given

| SMILES | MIC [µg/mL] |
| --- | --- |
| CC(C)Cc1nccc2c1[nH]c1ccccc12 | 100 (≈ 446 µM) |
| CCC(C)Cc1nccc2c1[nH]c1ccccc12 (stereo not drawn) | 50 (≈ 210 µM) |
| CCCCCCCCCCc1nccc2c1[nH]c1ccccc12 | 1.6 (≈ 5.19 µM) |
| CC(C)CCc1nccc2c1[nH]c1ccccc12 | 50 (≈ 210 µM) |
| CCCCCCc1nccc2c1[nH]c1ccccc12 | 25 (≈ 99.1 µM) |
| CCCCCCCCc1nccc2c1[nH]c1ccccc12 | 3.2 (≈ 11.4 µM) |
| CCCCCCCc1nccc2c1[nH]c1ccccc12 | 12.5 (≈ 46.9 µM) |
| CCCCCCCCCc1nccc2c1[nH]c1ccccc12 | 3.2 (≈ 10.9 µM) |
| Cc1nccc2c1[nH]c1ccccc12 [HARMAN] | 200 (≈ 1100 µM) |
| CCCCCc1nccc2c1[nH]c1ccccc12 | 50 (≈ 210 µM) |

test system: Sclerotinia sclerotiorum; assay: Antifungal activity against Sclerotinia sclerotiorum; type: functional, organism-based; settings: not given

| SMILES | EC50 [µM] |
| --- | --- |
| c1ccc([C@@H]2COC(c3nccc4c3[nH]c3ccccc34)=N2)cc1 | 17.3 |
| CC(C)(C)[C@@H]1COC(c2nccc3c2[nH]c2ccccc23)=N1 | 13 |
| CC[C@@H]1COC(c2nccc3c2[nH]c2ccccc23)=N1 | 22.4 |
| O=C(Nc1ccccc1-c1ccc(Cl)cc1)c1cccnc1Cl [BOSCALID] | 0.9 |
| CC(C)[C@@H]1COC(c2nccc3c2[nH]c2ccccc23)=N1 | 15.5 |
| O=C(O)c1cc2c([nH]c3ccccc32)c(-c2ccc(Br)cc2)n1 | 5.38 |
| O=C(O)c1cc2c([nH]c3ccccc32)c(-c2ccsc2)n1 | 11.9 |
| c1ccc(C[C@@H]2COC(c3nccc4c3[nH]c3ccccc34)=N2)cc1 | 12 |
| CC[C@@H](C)[C@@H]1COC(c2nccc3c2[nH]c2ccccc23)=N1 | 17.7 |

test system: Cytospora mali; assay: Antifungal activity against Valsa mali; type: functional; settings: not given

| SMILES | MIC [µg/mL] |
| --- | --- |
| COc1ccc(C2c3[nH]c4ccccc4c3C[C@H]3C(=O)N4CCC[C@H]4C(=O)N23)cc1 (stereo partly drawn) | 12.5 (≈ 31.1 µM) |
| CC(C)C1c2[nH]c3ccccc3c2C[C@H]2C(=O)N3CCC[C@H]3C(=O)N12 (stereo partly drawn) | 12.5 (≈ 37 µM) |
| O=C1[C@@H]2Cc3c([nH]c4ccccc34)C(c3ccccc3)N2C(=O)[C@@H]2CCCN12 (stereo partly drawn) | 12.5 (≈ 33.7 µM) |
| COc1cc(C2c3[nH]c4ccccc4c3C[C@H]3C(=O)N4CCC[C@H]4C(=O)N23)ccc1O (stereo partly drawn) | 6.25 (≈ 15 µM) |
| O=C1[C@@H]2Cc3c([nH]c4ccccc34)C(c3ccc(O)cc3)N2C(=O)[C@@H]2CCCN12 (stereo partly drawn) | 12.5 (≈ 32.3 µM) |
| O=C1[C@@H]2Cc3c([nH]c4ccccc34)C(c3ccc([N+](=O)[O-])cc3)N2C(=O)[C@@H]2CCCN12 (stereo partly drawn) | 12.5 (≈ 30 µM) |

test system: Sclerotinia; assay: Antifungal activity against rape Sclerotinia rot at 50 ug/ml relative to control; type: functional; settings: Sclerotinia

| SMILES | inhibition at 50 µg/mL [%] |
| --- | --- |
| CCn1c2ccccc2c2ccnc(-c3nc4ccccc4[nH]3)c21 | 92 |
| c1ccc(Cn2c3ccccc3c3ccnc(-c4nc5ccccc5[nH]4)c32)cc1 | 88.5 |

same assay, conditions: dose 50 µg/ml

| SMILES | Activity [%] |
| --- | --- |
| CCCCn1c2ccccc2c2ccnc(-c3nc4ccccc4[nH]3)c21 | 80.46 |
| Fc1ccc(Cn2c3ccccc3c3ccnc(-c4nc5ccccc5[nH]4)c32)cc1 | 79.89 |

test system: Alternaria solani; assay: Antifungal activity against Alternaria solani relative to control; type: functional; parameters: concentration or dose not given beside the values; settings: not given

| SMILES | Activity [%] |
| --- | --- |
| Cc1nccc2c1[nH]c1cc(OC(=O)C(C)(C)C)ccc12 | 66.7 |
| Cc1nccc2c1[nH]c1ccc([N+](=O)[O-])cc12 | 33.3 |
| Cc1nccc2c1[nH]c1cc(OC(=O)NC(C)C)ccc12 | 21.1 |
| N#Cc1c(Cl)c(Cl)c(Cl)c(C#N)c1Cl [CHLOROTHALONIL] | 73.3 |
| Cc1nccc2c1[nH]c1ccccc12 [HARMAN] | 68.4 |
| Cc1nccc2c1[nH]c1cc(O)ccc12 | 26.3 |
| Cc1nc(C(=O)O)cc2c1[nH]c1ccccc12 [HARMAN-3-CARBOXYLIC ACID] | 33.3 |
| Cc1nccc2c1[nH]c1ccc(Br)cc12 | 73.7 |

— ChEMBL document CHEMBL5136985, “Natural and synthetic β-carboline as a privileged antifungal scaﬀolds” (Eur J Med Chem, 2022)
